Measured values from ChEMBL document CHEMBL4665643 (Bioorg Med Chem Lett, 2019).

Tests used:
[1] = biological target: Mitogen-activated protein kinase 11 (Homo sapiens) (UniProt Q15759); test: Inhibition of recombinant human His-tagged full length p38 beta expressed in baculovirus expression system using Ser/Thr 15 as substrate at 0.1 uM incubated for 60 mins by Z'-Lyte assay relative to control
[2] = biological target: Tyrosine-protein kinase Fyn (Homo sapiens) (UniProt P06241); test: Inhibition of recombinant human C-terminal His-tagged full length FYN expressed in baculovirus expression system using Tyr 02 as substrate at 0.1 uM incubated for 60 mins by Z'-Lyte assay relative to control
Tyrosine-protein kinase Fyn (Homo sapiens), sequence (P06241 2-537 limits assumed): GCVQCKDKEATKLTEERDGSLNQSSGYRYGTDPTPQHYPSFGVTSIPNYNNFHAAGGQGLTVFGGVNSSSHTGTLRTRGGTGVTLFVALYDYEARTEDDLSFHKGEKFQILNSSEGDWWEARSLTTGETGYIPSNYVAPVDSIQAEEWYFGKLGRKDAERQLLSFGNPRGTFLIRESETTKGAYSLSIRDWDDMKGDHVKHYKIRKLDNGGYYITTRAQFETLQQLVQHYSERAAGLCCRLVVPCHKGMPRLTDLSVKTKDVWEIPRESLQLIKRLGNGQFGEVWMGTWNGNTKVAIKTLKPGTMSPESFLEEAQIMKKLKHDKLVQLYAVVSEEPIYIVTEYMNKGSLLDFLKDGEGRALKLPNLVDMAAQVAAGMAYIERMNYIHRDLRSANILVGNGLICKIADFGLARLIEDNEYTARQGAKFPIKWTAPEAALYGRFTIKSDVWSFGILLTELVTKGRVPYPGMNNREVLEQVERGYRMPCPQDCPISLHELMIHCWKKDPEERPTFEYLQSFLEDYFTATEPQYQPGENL

[3] = biological target: Ribosomal protein S6 kinase alpha-5 (Homo sapiens) (UniProt O75582); test: Inhibition of recombinant human GST-tagged full length MSK1 expressed in baculovirus expression system using Ser/Thr 01 as substrate at 0.1 uM incubated for 60 mins by Z'-lyte assay relative to control
Ribosomal protein S6 kinase alpha-5 (Homo sapiens), sequence (O75582 whole entry, looked up): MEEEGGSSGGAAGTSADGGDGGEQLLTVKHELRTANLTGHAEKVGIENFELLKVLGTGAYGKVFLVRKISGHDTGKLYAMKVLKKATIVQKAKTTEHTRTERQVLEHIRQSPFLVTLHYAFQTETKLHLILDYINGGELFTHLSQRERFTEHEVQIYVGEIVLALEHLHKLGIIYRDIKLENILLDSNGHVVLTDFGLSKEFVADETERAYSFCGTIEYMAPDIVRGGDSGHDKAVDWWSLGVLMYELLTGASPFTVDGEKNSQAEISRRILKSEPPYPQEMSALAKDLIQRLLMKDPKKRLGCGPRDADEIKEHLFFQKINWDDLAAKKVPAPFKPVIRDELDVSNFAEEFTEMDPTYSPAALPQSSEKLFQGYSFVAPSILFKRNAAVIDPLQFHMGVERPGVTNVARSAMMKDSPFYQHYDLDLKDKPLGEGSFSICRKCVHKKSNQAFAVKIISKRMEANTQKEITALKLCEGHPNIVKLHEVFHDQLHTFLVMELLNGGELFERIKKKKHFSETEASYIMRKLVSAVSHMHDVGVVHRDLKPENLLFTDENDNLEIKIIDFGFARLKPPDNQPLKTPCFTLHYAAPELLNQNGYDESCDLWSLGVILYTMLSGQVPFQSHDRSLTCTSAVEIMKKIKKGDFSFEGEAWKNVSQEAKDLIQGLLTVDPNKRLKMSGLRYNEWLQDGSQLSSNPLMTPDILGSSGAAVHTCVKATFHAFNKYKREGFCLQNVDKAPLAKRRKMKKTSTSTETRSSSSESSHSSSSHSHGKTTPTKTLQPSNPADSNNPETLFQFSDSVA

[4] = Metabolic stability in human liver microsomes assessed as intrinsic clearance at 1 uM measured upto 60 mins by LC-MS/MS analysis; type: ADME, Microsome; conditions: read-out: CLH
[5] = biological target: MAP kinase-activated protein kinase 2 (Homo sapiens) (UniProt P49137); test: Inhibition of recombinant human His-tagged full length MAPKAPK2 expressed in Escherichia coli expression system using Ser/Thr 04 as substrate at 0.1 uM incubated for 60 mins by Z'-lyte assay relative to control
MAP kinase-activated protein kinase 2 (Homo sapiens), sequence (P49137 whole entry, looked up): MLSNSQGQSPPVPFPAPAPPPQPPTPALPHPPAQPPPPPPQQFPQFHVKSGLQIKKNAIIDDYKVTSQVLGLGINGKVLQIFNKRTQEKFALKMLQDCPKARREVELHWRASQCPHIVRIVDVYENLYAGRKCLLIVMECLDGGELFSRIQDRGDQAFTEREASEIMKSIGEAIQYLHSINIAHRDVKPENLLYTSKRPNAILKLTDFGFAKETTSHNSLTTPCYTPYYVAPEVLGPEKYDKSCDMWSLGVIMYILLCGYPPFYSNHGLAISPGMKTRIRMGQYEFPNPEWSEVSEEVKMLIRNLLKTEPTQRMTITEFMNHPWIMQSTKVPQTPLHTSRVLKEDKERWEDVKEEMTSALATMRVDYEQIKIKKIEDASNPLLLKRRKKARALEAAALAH

[6] = biological target: T1, Mitogen-activated protein kinase kinase kinase 5 (Homo sapiens) (UniProt Q99683); test: Inhibition of tracer 236 binding to recombinant human GST-tagged full length ASK1 expressed in baculovirus expression system at 0.1 uM incubated for 60 mins by Lanthascreen assay relative to control
T1 sequence (whole entry): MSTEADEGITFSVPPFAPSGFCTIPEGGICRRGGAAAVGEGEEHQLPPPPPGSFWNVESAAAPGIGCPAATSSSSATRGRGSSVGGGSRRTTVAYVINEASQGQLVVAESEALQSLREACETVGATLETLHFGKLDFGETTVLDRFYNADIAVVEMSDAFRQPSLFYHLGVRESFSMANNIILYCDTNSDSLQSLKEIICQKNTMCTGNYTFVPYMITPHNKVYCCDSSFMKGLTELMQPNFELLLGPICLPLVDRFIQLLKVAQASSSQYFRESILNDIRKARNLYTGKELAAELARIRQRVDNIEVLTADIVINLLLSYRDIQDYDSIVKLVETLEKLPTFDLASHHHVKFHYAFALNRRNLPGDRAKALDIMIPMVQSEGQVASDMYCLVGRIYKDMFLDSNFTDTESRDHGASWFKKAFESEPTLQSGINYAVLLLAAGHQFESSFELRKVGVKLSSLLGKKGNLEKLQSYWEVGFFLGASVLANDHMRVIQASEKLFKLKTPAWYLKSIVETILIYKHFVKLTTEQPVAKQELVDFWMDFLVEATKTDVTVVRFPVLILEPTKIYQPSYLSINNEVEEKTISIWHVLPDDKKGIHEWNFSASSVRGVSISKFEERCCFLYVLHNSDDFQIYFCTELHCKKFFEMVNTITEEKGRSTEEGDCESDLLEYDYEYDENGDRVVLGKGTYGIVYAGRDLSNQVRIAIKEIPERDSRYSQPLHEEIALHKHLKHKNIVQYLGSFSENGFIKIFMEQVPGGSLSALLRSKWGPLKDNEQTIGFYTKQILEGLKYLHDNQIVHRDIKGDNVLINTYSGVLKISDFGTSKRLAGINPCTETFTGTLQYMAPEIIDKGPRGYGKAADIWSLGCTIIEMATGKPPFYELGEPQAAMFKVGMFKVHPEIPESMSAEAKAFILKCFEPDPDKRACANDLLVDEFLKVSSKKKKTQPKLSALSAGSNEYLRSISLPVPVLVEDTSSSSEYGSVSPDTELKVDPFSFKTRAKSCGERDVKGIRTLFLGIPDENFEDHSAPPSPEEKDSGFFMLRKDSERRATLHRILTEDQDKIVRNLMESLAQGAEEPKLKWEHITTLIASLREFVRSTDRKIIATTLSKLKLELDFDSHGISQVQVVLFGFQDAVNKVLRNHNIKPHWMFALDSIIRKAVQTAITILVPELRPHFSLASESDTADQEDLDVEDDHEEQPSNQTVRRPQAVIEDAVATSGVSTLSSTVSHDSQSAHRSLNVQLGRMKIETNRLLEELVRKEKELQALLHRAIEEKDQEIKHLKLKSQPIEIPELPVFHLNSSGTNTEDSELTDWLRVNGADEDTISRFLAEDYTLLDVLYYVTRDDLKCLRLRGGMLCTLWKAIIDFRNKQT

[7] = biological target: T2, Ephrin type-B receptor 2 (Homo sapiens) (UniProt P29323); test: Inhibition of recombinant human GST-tagged EPHB2 (616 to 884 residues) expressed in baculovirus expression system using Tyr 02 as substrate at 0.1 uM incubated for 60 mins by Z'-Lyte assay relative to control
T2 sequence (whole entry): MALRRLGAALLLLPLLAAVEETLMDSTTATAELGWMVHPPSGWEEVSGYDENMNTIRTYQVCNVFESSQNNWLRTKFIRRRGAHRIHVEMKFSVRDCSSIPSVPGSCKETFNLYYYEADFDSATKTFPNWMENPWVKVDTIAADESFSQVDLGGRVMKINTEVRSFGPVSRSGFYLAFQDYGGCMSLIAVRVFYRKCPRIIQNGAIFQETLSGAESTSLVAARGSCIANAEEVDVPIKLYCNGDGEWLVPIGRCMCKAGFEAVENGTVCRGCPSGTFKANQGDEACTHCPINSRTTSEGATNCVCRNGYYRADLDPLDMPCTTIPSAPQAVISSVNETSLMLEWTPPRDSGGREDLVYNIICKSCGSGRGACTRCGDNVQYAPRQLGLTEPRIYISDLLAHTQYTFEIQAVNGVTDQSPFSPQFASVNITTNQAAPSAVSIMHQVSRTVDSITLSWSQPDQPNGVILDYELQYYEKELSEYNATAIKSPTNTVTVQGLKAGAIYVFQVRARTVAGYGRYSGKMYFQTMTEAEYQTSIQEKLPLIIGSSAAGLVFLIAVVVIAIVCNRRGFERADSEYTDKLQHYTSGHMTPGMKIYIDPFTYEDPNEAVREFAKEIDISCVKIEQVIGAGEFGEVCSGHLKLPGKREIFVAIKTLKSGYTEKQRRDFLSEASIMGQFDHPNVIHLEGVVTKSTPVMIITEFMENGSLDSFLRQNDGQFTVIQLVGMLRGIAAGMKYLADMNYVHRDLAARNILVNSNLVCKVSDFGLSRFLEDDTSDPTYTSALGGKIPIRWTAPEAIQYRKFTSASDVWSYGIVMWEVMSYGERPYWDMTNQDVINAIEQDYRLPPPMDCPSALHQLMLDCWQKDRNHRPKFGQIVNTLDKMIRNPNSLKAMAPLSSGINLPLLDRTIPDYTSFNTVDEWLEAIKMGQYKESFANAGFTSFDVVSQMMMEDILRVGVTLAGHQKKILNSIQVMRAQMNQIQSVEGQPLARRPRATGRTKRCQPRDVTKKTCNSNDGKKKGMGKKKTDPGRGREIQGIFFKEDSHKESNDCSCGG

Mitogen-activated protein kinase 11 (Homo sapiens), sequence (Q15759 whole entry): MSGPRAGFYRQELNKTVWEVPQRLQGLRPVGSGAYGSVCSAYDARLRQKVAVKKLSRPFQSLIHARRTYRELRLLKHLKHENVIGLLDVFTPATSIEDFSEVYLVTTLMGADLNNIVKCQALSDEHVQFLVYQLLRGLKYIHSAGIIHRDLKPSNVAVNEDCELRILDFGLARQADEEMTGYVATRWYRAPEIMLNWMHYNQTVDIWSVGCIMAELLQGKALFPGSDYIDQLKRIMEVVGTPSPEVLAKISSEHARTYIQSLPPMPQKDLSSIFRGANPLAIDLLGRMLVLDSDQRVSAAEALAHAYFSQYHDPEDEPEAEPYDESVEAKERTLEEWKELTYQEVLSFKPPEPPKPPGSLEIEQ

## Cn1cc(NC(=O)c2cnn3cccnc23)c(-c2cc(Cl)ccc2OC(F)F)n1
[1]
  inhibition: 11%
[2]
  inhibition: 89%
[3]
  inhibition: 5%
[4]
  CLint scaled at 1 µM: 15 mL/min/kg
[5]
  inhibition: 10%
[6]
  inhibition: 2%
[7]
  inhibition: 1%

## O=C(Nc1c[nH]nc1-c1cc(Cl)ccc1OC(F)F)c1cnn2cccnc12
[1]
  inhibition: 9%
[2]
  inhibition: 95%
[3]
  inhibition: 3%
[4]
  CLint scaled at 1 µM: 14 mL/min/kg
[5]
  inhibition: 0%
[6]
  inhibition: 4%
[7]
  inhibition: 10%

## O=C(Nc1c[nH]nc1-c1cc2ccccc2cc1OC(F)F)c1cnn2cccnc12
[1]
  inhibition: 5%
[2]
  inhibition: 78%
[3]
  inhibition: -2%
[4]
  CLint scaled at 1 µM: 17 mL/min/kg
[5]
  inhibition: 6%
[6]
  inhibition: -2%
[7]
  inhibition: -3%
